# According to patent US20110251379A1, “COMPOUNDS USEFUL FOR TREATING NEURODEGENERATIVE DISORDERS” (Satori Pharmaceuticals, Inc., priority 2010, published 2011):
# Tested on: amyloid-beta (1-42) peptide
# Test: ELISA assay of amyloid-beta (1-42) in conditioned media of 2B7 cells
# Format: cell-based
# Conditions: 5 h, Aβ-42, 2B7 cells, 5 hours; read-out: IC50 range
# Summary of the method: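 2B7 cells were treated with compounds for 5 hours at 37° C in media with 1% DMSO. Conditioned media, diluted 1:2 in blocking buffer, went into a sandwich ELISA with 6E10 capture and an HRP-labelled detection antibody, read by TMB at 450 nm. Values came from an Aβ peptide standard curve.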
row,Structure (SMILES),IC50
1,CC(=O)O[C@@H]([C@H]1C[C@@H](C)C2C(O1)[C@H](O)[C@@]1(C)[C@@H]3CC[C@H]4C(C)(C)[C@@H](O[C@@H]5OC[C@@H](O)[C@H](O)[C@H]5O)CC[C@@]45C[C@@]35CC[C@]21C)C(C)(C)O (some centres unmarked) [drawing 891],≤ 1 µM

# Same assay, conditions: Aβ-42, 10 umol/L; read-out: % Inhibition (range)
row,Structure (SMILES),inhibition at 10 µM
1,C[C@@H]1C[C@H]([C@H](O)C(C)(C)O)OC2C1[C@@]1(C)CC[C@@]34C[C@@]35CC[C@H](O)C(C)(C)[C@@H]5CC[C@H]4[C@]1(C)[C@H]2O (some centres unmarked) [drawing 887],< 25%

# Same assay, conditions: Aβ-42, 20 umol/L
row,Structure (SMILES),% Inhibition (range)
1,"CC1CC(C(O)C(C)(C)O)OC2C1C1(C)CCC34CC35CCC(OC3CN(C6CCOC6)CCO3)C(C)(C)C5CCC4C1(C)C2O (single isomer, unassigned) [drawing 1105]",F (% inhibition of <25%)
2,"CC1CC(C(O)C(C)(C)O)OC2C1C1(C)CCC34CC35CCC(OC3CN(C6CCOC6)CCO3)C(C)(C)C5CCC4C1(C)C2O (single isomer, unassigned) [drawing 1106]",E (% inhibition of 25-75%)
3,CC1CC(CO)OC2C1C1(C)CCC34CC35CCC(OC3OCC(O)C(O)C3O)C(C)(C)C5CCC4C1(C)C2O (centres unmarked) [drawing 782],E (% inhibition of 25-75%)
4,C[C@@H]1C[C@H]([C@H](O)C(C)(C)O)OC2C1[C@@]1(C)CC[C@@]34C[C@@]35CC[C@H](O)C(C)(C)[C@@H]5CC[C@H]4[C@]1(C)[C@H]2O (some centres unmarked) [drawing 890],E (% inhibition of 25-75%)

# Same assay, conditions: Aβ-42, 20 umol/L; read-out: % Inhibition (range)
row,Structure (SMILES),inhibition at 20 µM
1,C[C@@H]1C[C@H]([C@H](O)C(C)(C)O)OC2C1[C@@]1(C)CC[C@@]34C[C@@]35CC[C@H](O)C(C)(C)[C@@H]5CC[C@H]4[C@]1(C)[C@H]2O (some centres unmarked) [drawing 889],< 25%

# Same assay, conditions: Aβ-42, 100 umol/L; read-out: % Inhibition (range)
row,Structure (SMILES),inhibition at 100 µM
1,C[C@@H]1C[C@H]([C@H](O)C(C)(C)O)OC2C1[C@@]1(C)CC[C@@]34C[C@@]35CC[C@H](O)C(C)(C)[C@@H]5CC[C@H]4[C@]1(C)[C@H]2O (some centres unmarked) [drawing 888],25 to 75%

# Same assay, conditions: Aβ-42, 2B7 cells, 5 hours; read-out: IC50 range
row,Structure (SMILES),IC50
1,CC1CC(CNCC(F)(F)F)OC2C1C1(C)CCC34CC35CCC(O)C(C)(C)C5CCC4C1(C)C2O (centres unmarked),> 10 µM
2,C=C(C)C(OC(C)=O)C1CC(C)C2C(O1)C(O)C1(C)C3CCC4C(C)(C)C(OC5CN(CC(=O)N(C)C)CCO5)CCC45CC35CCC21C (centres unmarked),1 to 10 µM
3,CC(=O)N(CC1CC(C)C2C(O1)C(O)C1(C)C3CCC4C(C)(C)C(O)CCC45CC35CCC21C)C(C)(C)C (centres unmarked),< 10 µM
4,CC(=O)N(C)CC1CC(C)C2C(O1)C(O)C1(C)C3CCC4C(C)(C)C(O)CCC45CC35CCC21C (centres unmarked),> 10 µM
5,CC(=O)N(CC1CC(C)C2C(O1)C(O)C1(C)C3CCC4C(C)(C)C(O)CCC45CC35CCC21C)CC(F)(F)F (centres unmarked),> 10 µM
6,COC(=O)C1CC(C)C2C(O1)C(O)C1(C)C3CCC4C(C)(C)C(O)CCC45CC35CCC21C (centres unmarked),> 10 µM
7,CC1CC(C(=O)NC2CCC2)OC2C1C1(C)CCC34CC35CCC(O)C(C)(C)C5CCC4C1(C)C2O (centres unmarked),> 10 µM
8,CC1CC(C(=O)NCc2ccccc2)OC2C1C1(C)CCC34CC35CCC(O)C(C)(C)C5CCC4C1(C)C2O (centres unmarked),> 10 µM
9,CC1CC(CN)OC2C1C1(C)CCC34CC35CCC(O)C(C)(C)C5CCC4C1(C)C2O (centres unmarked),> 10 µM
10,CC(=O)NCC1CC(C)C2C(O1)C(O)C1(C)C3CCC4C(C)(C)C(O)CCC45CC35CCC21C (centres unmarked),> 10 µM
11,CC1CC(CNC(C)(C)C)OC2C1C1(C)CCC34CC35CCC(OS(C)(=O)=O)C(C)(C)C5CCC4C1(C)C2O (centres unmarked),> 10 µM
12,CCC(=O)N(CC1CC(C)C2C(O1)C(O)C1(C)C3CCC4C(C)(C)C(O)CCC45CC35CCC21C)C(C)(C)C (centres unmarked),> 10 µM
13,CC1CC(C(=O)N2CCC2)OC2C1C1(C)CCC34CC35CCC(O)C(C)(C)C5CCC4C1(C)C2O (centres unmarked),> 10 µM
14,CC1CC(C(=O)N2CCOCC2)OC2C1C1(C)CCC34CC35CCC(O)C(C)(C)C5CCC4C1(C)C2O (centres unmarked),> 10 µM
15,CC1CC(CNS(C)(=O)=O)OC2C1C1(C)CCC34CC35CCC(O)C(C)(C)C5CCC4C1(C)C2O (centres unmarked),> 10 µM
16,CC(=O)N(CC1CC(C)C2C(O1)C(O)C1(C)C3CCC4C(C)(C)C(O)CCC45CC35CCC21C)C1COC1 (centres unmarked),> 10 µM
17,CC1CC(CN(C2COC2)S(C)(=O)=O)OC2C1C1(C)CCC34CC35CCC(O)C(C)(C)C5CCC4C1(C)C2O (centres unmarked),> 10 µM
18,CC(=O)N(CC1CC1)CC1CC(C)C2C(O1)C(O)C1(C)C3CCC4C(C)(C)C(O)CCC45CC35CCC21C (centres unmarked),> 10 µM
19,CC1CC(CN(CC2CC2)S(C)(=O)=O)OC2C1C1(C)CCC34CC35CCC(O)C(C)(C)C5CCC4C1(C)C2O (centres unmarked),> 10 µM
20,CC(=O)N(CC1CC(C)C2C(O1)C(O)C1(C)C3CCC4C(C)(C)C(O)CCC45CC35CCC21C)CC(C)(C)O (centres unmarked),> 10 µM
21,CC1CC(C(O)C(C)(C)O)OC2C1C1(C)CCC34CC35CCC(OC3CN(C(=O)c6ccc(F)cc6)CCO3)C(C)(C)C5CCC4C1(C)C2O (centres unmarked),1 to 10 µM
22,CC1CC(C(O)C(C)(C)O)OC2C1C1(C)CCC34CC35CCC(OC3CN(C(=O)c6ccccn6)CCO3)C(C)(C)C5CCC4C1(C)C2O (centres unmarked),> 10 µM
23,CC1CC(C(O)C(C)(C)O)OC2C1C1(C)CCC34CC35CCC(OC3CN(C(=O)CN(C)C)CCO3)C(C)(C)C5CCC4C1(C)C2O (centres unmarked),1 to 10 µM
24,CC1CC(C(O)C(C)(C)O)OC2C1C1(C)CCC34CC35CCC(OC3CN(C(=O)CN6CCCC6)CCO3)C(C)(C)C5CCC4C1(C)C2O (centres unmarked),1 to 10 µM
25,CC1CC(C(O)C(C)(C)O)OC2C1C1(C)CCC34CC35CCC(OC3CN(C(=O)C6CCN(C)CC6)CCO3)C(C)(C)C5CCC4C1(C)C2O (centres unmarked),1 to 10 µM
26,CC1CC(C(O)C(C)(C)O)OC2C1C1(C)CCC34CC35CCC(OC3CN(C(=O)CC6CCCCC6)CCO3)C(C)(C)C5CCC4C1(C)C2O (centres unmarked),≤ 1 µM

row,Structure (SMILES),IC50
1,CC1CC(C(O)C(C)(C)O)OC2C1C1(C)CCC34CC35CCC(OC3CN(C(=O)C6CCC6)CCO3)C(C)(C)C5CCC4C1(C)C2O (centres unmarked),< 10 µM
2,CC1CC(CCC(=O)O)OC2C1C1(C)CCC34CC35CCC(OC3CN(C(=O)CC6CC6)CCO3)C(C)(C)C5CCC4C1(C)C2O (centres unmarked),1 to 10 µM
3,CC1CC(CO)OC2C1C1(C)CCC34CC35CCC(OC3OCC(O)C(O)C3O)C(C)(C)C5CCC4C1(C)C2O (centres unmarked) [drawing 782],> 10 µM
4,CC1CC(CO)OC2C1C1(C)CCC34CC35CCC(OC3OCC(O)C(O)C3O)C(C)(C)C5CCC4C1(C)C2O (centres unmarked) [drawing 783],1 to 10 µM
5,CC(=O)OC(C1CC(C)C2C(O1)C(O)C1(C)C3CCC4C(C)(C)C(OC5CN(S(C)(=O)=O)CCO5)CCC45CC35CCC21C)C(C)(C)O (centres unmarked) [drawing 785],≤ 1 µM
6,CC(=O)OC(C1CC(C)C2C(O1)C(O)C1(C)C3CCC4C(C)(C)C(OC(=O)C5CNC5)CCC45CC35CCC21C)C(C)(C)O (centres unmarked) [drawing 791],≤ 1 µM
7,CC(=O)OCC1CC(C)C2C(O1)C(O)C1(C)C3CCC4C(C)(C)C(OC5OCC(O)C(O)C5O)CCC45CC35CCC21C (centres unmarked) [drawing 792],1 to 10 µM
8,CC(=O)N(Cc1ccccc1)CC1CC(C)C2C(O1)C(O)C1(C)C3CCC4C(C)(C)C(O)CCC45CC35CCC21C (centres unmarked) [drawing 801],1 to 10 µM
9,CC1CC(C(=O)O)OC2C1C1(C)CCC34CC35CCC(O)C(C)(C)C5CCC4C1(C)C2O (centres unmarked) [drawing 803],> 10 µM
10,CCC(=O)OC(C1CC(C)C2C(O1)C(O)C1(C)C3CCC4C(C)(C)C(OC5CN(C6COC6)CCO5)CCC45CC35CCC21C)C(C)(C)O (centres unmarked) [drawing 805],≤ 1 µM
11,CC(=O)OCC1CC(C)C2C(O1)C(O)C1(C)C3CCC4C(C)(C)C(OC(=O)c5cccnc5)CCC45CC35CCC21C (centres unmarked) [drawing 832],1 to 10 µM
12,CC(=O)N(Cc1cc(F)cc(F)c1)CC1CC(C)C2C(O1)C(O)C1(C)C3CCC4C(C)(C)C(O)CCC45CC35CCC21C (centres unmarked) [drawing 839],≤ 1 µM
13,CC(=O)N(Cc1ccccn1)CC1CC(C)C2C(O1)C(O)C1(C)C3CCC4C(C)(C)C(O)CCC45CC35CCC21C (centres unmarked) [drawing 841],1 to 10 µM
14,CC(=O)N(CC1CC(C)C2C(O1)C(O)C1(C)C3CCC4C(C)(C)C(O)CCC45CC35CCC21C)C(C)c1ccccc1 (centres unmarked) [drawing 844],< 10 µM
15,CC(=O)N(CC1CC(C)C2C(O1)C(O)C1(C)C3CCC4C(C)(C)C(O)CCC45CC35CCC21C)C(C)C (centres unmarked) [drawing 845],1 to 10 µM
16,CC(=O)N(CC1CC(C)C2C(O1)C(O)C1(C)C3CCC4C(C)(C)C(O)CCC45CC35CCC21C)C(C)c1ccccc1 (centres unmarked) [drawing 851],1 to 10 µM
17,CC1CC(C(OC(=O)C2CC2)C(C)(C)O)OC2C1C1(C)CCC34CC35CCC(O)C(C)(C)C5CCC4C1(C)C2O (centres unmarked) [drawing 853],≤ 1 µM
18,CC(=O)N(Cc1cc(F)cc(F)c1)CC1CC(C)C2C(O1)C(O)C1(C)C3CCC4C(C)(C)C(OC(=O)C5CNC5)CCC45CC35CCC21C (centres unmarked) [drawing 856],1 to 10 µM
19,CC1CC(C(OC(=O)C2CCC2)C(C)(C)O)OC2C1C1(C)CCC34CC35CCC(O)C(C)(C)C5CCC4C1(C)C2O (centres unmarked) [drawing 859],≤ 1 µM
20,CC1CC(C(OC(=O)N(C)C)C(C)(C)O)OC2C1C1(C)CCC34CC35CCC(O)C(C)(C)C5CCC4C1(C)C2O (centres unmarked) [drawing 862],> 10 µM
21,CC1CC(C(=O)C(C)(C)O)OC2C1C1(C)CCC34CC35CCC(O)C(C)(C)C5CCC4C1(C)C2O (centres unmarked) [drawing 864],> 10 µM
22,CC1CC(C(OC(=O)C2CCC2)C(C)(C)O)OC2C1C1(C)CCC34CC35CCC(OC3CN(C6COC6)CCO3)C(C)(C)C5CCC4C1(C)C2O (centres unmarked) [drawing 865],> 10 µM
23,CC(C)C(=O)OC(C1CC(C)C2C(O1)C(O)C1(C)C3CCC4C(C)(C)C(OC5CN(C6COC6)CCO5)CCC45CC35CCC21C)C(C)(C)O (centres unmarked) [drawing 866],> 10 µM
24,C[C@@H]1C[C@H]([C@H](O)C(C)(C)O)OC2C1[C@@]1(C)CC[C@@]34C[C@@]35CC[C@H](O)C(C)(C)[C@@H]5CC[C@H]4[C@]1(C)[C@H]2O (some centres unmarked) [drawing 887],1 to 10 µM
25,C[C@@H]1C[C@H]([C@H](O)C(C)(C)O)OC2C1[C@@]1(C)CC[C@@]34C[C@@]35CC[C@H](O)C(C)(C)[C@@H]5CC[C@H]4[C@]1(C)[C@H]2O (some centres unmarked) [drawing 889],> 10 µM
